From PubChem BioAssay AID1508591

settings: rat; liver microsomes; pH 7.4; 15.0 min; 1.0 µM

| SMILES | half-life |
| --- | --- |
| Cc1ccc(S(=O)(=O)N2CCCc3cc(NS(=O)(=O)c4ccccc4)ccc32)cc1 | 1 min |
| COc1ccc(C(=O)CCN(C)C)cc1F | 1.08 min |
| Cc1ccc(-c2cc(C(=O)NCc3cnn(C)c3)c3cc(Br)ccc3n2)cc1 | > 30 min |
| N#Cc1cccc(Nc2ncc(-c3cccc4ccccc34)o2)c1 | > 30 min |
| Cc1nn(Cc2ccc(Cl)cc2)c(C)c1NC(=O)c1cc(-c2ccc3c(c2)OCO3)on1 | 6.4 min |
| c1ccc2c(N3CCOCC3)nc(-c3ccncc3)nc2c1 | 10 min |
| COc1cccc(NCCC2(c3ccccc3)CC(C)(C)OC(C)(C)C2)c1 | 1.6 min |
| CC(C)C[C@H](NC(=O)[C@H](CCc1ccccc1)NC(=O)CN1CCOCC1)C(=O)N[C@@H](Cc1ccccc1)C(=O)N[C@@H](CC(C)C)C(=O)[C@@]1(C)CO1 | 3.52 min |
| C/C(=N\NC(N)=S)C1=CCC2C3CC[C@H]4CC(O)CC[C@]4(C)C3CC[C@]12C (some centres not stated) | > 30 min |
| CCCCCCCc1c(C)nc(N2CCOCC2)[nH]c1=O | 3.5 min |
| O=C([C@H](Cc1ccc(O[S+](=O)([O-])c2cccc3cnccc23)cc1)N[S+](=O)([O-])c1cccc2cnccc12)N1CCN(Cc2ccccc2)CC1 | 16 min |
| O=C1NCc2ccc(-c3cc4c(ccn4Cc4cccnc4)c(C4=CCOCC4)n3)cc21 | 19.5 min |
| Cc1cc(C)c2nc(-c3ccccn3)cc(C(=O)Nc3ccc(S(=O)(=O)Nc4onc(C)c4C)cc3)c2c1 | > 30 min |
| CCn1c(C(=O)N2CCCC(C(=O)NCCc3ccc(C)cc3)C2)cc2sccc21 (configuration not stated) | 1.7 min |
| O=C(CCc1ccccc1)NC(c1cccs1)c1cc(Cl)c2cccnc2c1O (configuration not stated) | 2.14 min |
| CCC(CC)c1cc([C@H]2CN3CC[C@H]2C[C@@H]3CNC(=O)Cc2cccs2)nc(-c2ccncc2)n1 | 2.78 min |
| Cc1noc([C@@H]2CN(C(=O)c3nn(C)c4ccccc34)C[C@H]2CO)n1 | > 30 min |
| Oc1ccc(CNc2ccccc2F)c2cccnc12 | 3.7 min |
| OCC(O)CCO/N=C1/C(c2c(O)[nH]c3ccccc23)=Nc2ccccc21 (configuration not stated) | 10 min |
| CC1=C(C(=O)Nc2nncs2)C(c2nn(C)cc2Cl)N=C(Nc2nc3ccccc3o2)N1 (configuration not stated) | > 30 min |
| COc1ccc(NC2=C(c3ccc(C(F)(F)F)cc3)C(=O)c3ccccc32)cc1 | 7.57 min |
| CC(C)N(CCCNC(=O)Nc1ccc(C(C)(C)C)cc1)C[C@H]1O[C@@H](n2cc(Br)c3c(N)ncnc32)[C@H](O)[C@H]1O | 2.47 min |
| Cn1cnc(S(=O)(=O)Nc2cnccc2C(=O)Nc2nc(-c3ccccc3)cs2)c1 | > 30 min |
| COc1ccc(C2CC(=O)Nc3nc(N)sc32)cc1OC (configuration not stated) | > 30 min |
| CN(C)c1cccc(-c2c3c(=O)n(-c4ccccc4Cl)[nH]c3cc(=O)n2C)c1 | > 30 min |
| CCN1CCN(c2ccc(Nc3ccc(-c4ccc(C(N)=O)cc4)n4ncnc34)cc2)CC1 | > 30 min |

| SMILES | half-life |
| --- | --- |
| Cc1cc(Oc2ccc(N)cn2)ccc1Cl | 17.8 min |
| O=C(c1nc(-c2cccnc2)c2ccccn12)N1CCOCC1 | > 30 min |
| O=C(Nc1ncc(Cc2ccc(C(F)(F)F)cc2)s1)c1ccc(-c2ccc([N+](=O)[O-])cc2)o1 | > 30 min |
| Cc1ccc(CN2C(=O)C(O)(CC(=O)c3ccc(C)cc3)c3ccccc32)cc1 (configuration not stated) | 1.18 min |
| O=C(CNC(=O)c1cnccn1)NC1CCCc2c1[nH]c1ccc(Cl)cc21 (configuration not stated) | > 30 min |
| COc1ccc(NC(=O)c2c(C)c(C(C)=O)c(C)n2C)cc1S(=O)(=O)Nc1ccc(Br)cc1 | 5.9 min |
| O=C1CCCC2=C1C1(CCCC1)N=C(Nc1nc3cc(Br)ccc3o1)N2 | 4.9 min |
| S=C(NCCCc1cnc[nH]1)NCCCN(Cc1ccc(Cl)c(Cl)c1)c1ccc(Br)cn1 | > 30 min |
| NC1(c2ccccc2Cl)CCCCC1=O (configuration not stated) | 11 min |
| COC(=O)CNC(=O)c1nc(-c2ccc(Cl)nc2)c2ccccn12 | 4.72 min |
| CC(C)(C)OC(=O)N[C@@H](Cc1ccc(O[S+](=O)([O-])c2cccc3cnccc23)cc1)C(=O)Nc1ccc(-c2ccccc2)cc1 | 2.55 min |
| CC/C=C\C/C=C\C/C=C\C/C=C\C/C=C\C/C=C\CCC(=O)NCCO | 4.94 min |
| O=[N+]([O-])c1cccc(CSc2nc3ncc(Br)cc3[nH]2)c1 | 6.6 min |
| COc1ccc(O)c(CNc2ccc(S(=O)(=O)Nc3nccs3)cc2)c1 | > 30 min |
| O=C(Nc1cccc(C(F)(F)F)c1)c1cc2nc(-c3ccccc3)cc(C(F)(F)F)n2n1 | > 30 min |
| Cc1nc(NC(=O)C2CC(=O)N(c3n[nH]c4cc(Br)ccc34)C2)sc1C (configuration not stated) | 18.5 min |
| Cc1ccc(S(=O)(=O)Nc2cnccc2C(=O)Nc2nc(-c3ccccc3)cs2)cc1 | 14.3 min |
| CN(C)c1cccc(-c2cnc(N3CCC(c4ncc[nH]4)CC3)s2)c1 | 4.63 min |
| COc1ccc(OC)c(-c2nc3c(C#N)c[nH]n3c2NC2CCCCC2)c1 | 4.2 min |
| Cc1ccc(Nc2nc(NCCO)c3ccccc3n2)cc1C | 2.42 min |
| COC(=O)c1cc(Cl)ccc1NC(=O)CSc1ncc(S(=O)(=O)c2ccc(Br)cc2)c(=O)[nH]1 | 18 min |
| OCc1ccc(-c2cc3c(ccn3Cc3cccnc3)c(C3=CCOCC3)n2)cc1 | 4.89 min |
| Cc1ccc(-n2ncc3c(NCCCN(C)C)ncnc32)cc1Cl | 8.9 min |
| COc1ccc(-c2ccc3ncc(Nc4ccncc4)n3n2)cc1OC | 23 min |
| COc1cc(Nc2nc(-c3ccncc3)nc3ccccc23)ccc1Cl | 12 min |
| CCc1ccc(C2N=C(N)Nc3nc4ccccc4n32)cc1 (configuration not stated) | 5.62 min |

| SMILES | half-life |
| --- | --- |
| NC(=O)C1CCN(c2nccc(Cl)n2)CC1 | > 30 min |
| O=C(Cc1ccc(-c2csc(Nc3ccc(F)cc3)n2)s1)N1CCOCC1 | > 30 min |
| COc1ccc2c(ccn2CCC(=O)Nc2ccc3c(c2)C(=O)N2CCC[C@H]2C(=O)N3)c1 | 9.22 min |
| NC(=O)C1CCN(c2nc(-c3ccc(Cl)cc3)cs2)CC1 | 3.09 min |
| COC(=O)c1ccc(NC(=O)c2nc3ccccc3n(C)c2=O)cc1 | 2.98 min |
| Cc1ccc(S(=O)(=O)Nc2cc3c(cc2C(=O)Nc2nc(-c4ccccc4)cs2)OCO3)cc1 | 6.7 min |
| O=C(O)c1ccc(O)c2ncc(N3CCCN(CCc4cccc5ccccc45)CC3)cc12 | > 30 min |
| CCOc1ccc(-c2nnc(SCC(=O)NCc3ccccc3Cl)o2)cc1 | 3.32 min |
| COc1cc(C2c3c(oc4cc(C)c(C)cc4c3=O)C(=O)N2CCCN2CCOCC2)ccc1O (configuration not stated) | 12.7 min |
| O=C(NCc1cccnc1)c1nc(-c2ccc(Cl)nc2)c2cnccn12 | 26.6 min |
| NS(=O)(=O)c1ccc(Cc2c(-c3cccc(-c4ccccc4)c3)nn(-c3nc(C(=O)O)cs3)c2CC2CC2)cc1 | > 30 min |
| CCOc1ccc(CNC(=O)CCCn2nc(C)c3c(C)n(-c4ccc(C)cc4)nc3c2=O)cc1 | 3.01 min |
| COc1ccc(S(=O)(=O)N2CCCCCC2)cc1NC(=O)Cc1n[nH]c(=O)c2ccccc12 | 2.9 min |
| COc1cc(Nc2nc(-c3ccncc3)nc3ccccc23)ccc1N1CCN(C)CC1 | 11 min |
| COc1cccc(CC(=O)Nc2nc(-c3ccc4c(c3)CCN4C(=O)c3ccccc3C)c(C)s2)c1 | 19 min |
| COc1ccc(NC(=O)CCCc2nnc3n(CCC(C)C)c(=O)c4sccc4n23)cc1Cl | 2.96 min |
| Fc1cccc(F)c1Nc1nc(-c2ccncc2)nc2ccccc12 | 29 min |
| CN(C)CCOc1ccc(C(=C(CCCl)c2ccccc2)c2ccccc2)cc1 | > 30 min |
| CN(C)C(=O)c1cccc(-c2csc(N3CCC(C(N)=O)CC3)n2)c1 | > 30 min |
| Cn1c(=O)c2c(-c3ccc(Br)cc3)n(CCc3ccccc3)cc2n(C)c1=O | 1.23 min |
| CCN(CC)CCCC(C)Nc1cc(/C=C/c2ccccc2Cl)nc2cc(Cl)ccc12 (configuration not stated) | 7.34 min |
| CS(=O)(=O)CCNCc1ccc(-c2ccc3ncnc(Nc4ccc(OCc5cccc(F)c5)c(Cl)c4)c3c2)o1 | 7.65 min |
| Fc1ccc(Cl)cc1-c1nc(Nc2ccncc2)c2nccnc2n1 | 15.9 min |
| c1ccc(Nc2cc3c(cn2)CN(Cc2ccc4[nH]ccc4c2)CCN3)cc1 | 2.09 min |
| COc1ccc2[nH]c(S(=O)Cc3ncc(C)c(OC)c3C)nc2n1 (configuration not stated) | 19.2 min |
| Cc1cc(C)nc(NC(=S)N2CCN(c3ccc(Cl)cc3F)CC2)c1 | > 30 min |

| SMILES | half-life |
| --- | --- |
| CCC(=O)NC(c1ccc(OC)cc1)c1cc(Cl)c2cccnc2c1O (configuration not stated) | 4.41 min |
| CC(Nc1ncnc2c1cnn2-c1cccc(Cl)c1)c1ccccc1 (configuration not stated) | 23 min |
| CN(Cc1ccccc1)C(=O)C1CCN(Cc2cccc3ccccc23)CC1 | 2.4 min |
| Cc1ccc(-c2csc(CCn3nc(C)c4c(C(F)(F)F)cc(=O)[nH]c43)n2)cc1 | 4.7 min |
| Cc1cc(C)c(C(=O)Nc2cccc([S+](=O)([O-])N3CCCCCC3)c2)[nH]1 | 1.7 min |
| CC(C)(C)n1nc(-c2ccc(Cl)cc2)c2c(N)ncnc21 | > 30 min |
| O=C(O)c1ccnc(-c2cc(C(=O)NCCc3ccccc3)ccn2)c1 | > 30 min |
| Cc1ccc(S(=O)(=O)Nc2cnccc2C(=O)NCc2ccccc2)cc1 | 5.9 min |
| CN(C)CC(=O)NC1CCCc2c1cnn2-c1ccc(F)cc1F (configuration not stated) | > 30 min |
| O=C(NCCc1nc2ccccc2n1CCO)C1CCCCC1 | 20.3 min |
| NC(=O)C1CCN(c2nc(-c3ccccc3[N+](=O)[O-])cs2)CC1 | 3.9 min |
| Fc1cc(Nc2nc(-c3ccncc3)nc3ccccc23)ccc1-c1cccc(C(F)(F)F)c1 | > 30 min |
| NC(CO)(CO)CCc1ccc(Sc2cccc(OCc3ccccc3)c2)cc1Cl | > 30 min |
| CCN(CC)CCOc1ccc(Cc2ccccc2)cc1 | 1.73 min |
| Nc1cccc(CNc2ccc(S(=O)(=O)Nc3nccs3)cc2)c1O | > 30 min |
| O=[S+]([O-])(Nc1ccccc1)c1ccc(NCc2cccc(Cl)c2F)cc1 | 4.5 min |
| O=S(=O)(Nc1ccccc1)c1ccc(NCc2cccc(Cl)c2O)cc1 | 2.2 min |
| Cc1cccc(N2CCN(c3nc4ccccc4c4nnc(C)n34)CC2)c1C | 17.6 min |
| O=C(c1cccc(F)c1)N1CCC2(CCN(Cc3cc(C(F)(F)F)cc(C(F)(F)F)c3)CC2)CC1 | > 30 min |
| Oc1ccc(CN2CC(CNc3ccccc3)C3(C2)CN(c2ccccc2)C3)cc1 (configuration not stated) | 3.01 min |
| Fc1ccc(Nc2nc(C3=CCNCC3)nc3ccccc23)cc1F | 6.1 min |
| Cc1ccc2oc(NC3=NC(c4[nH]ncc4Cl)C4=C(CCCC4=O)N3)nc2c1 (configuration not stated) | 1.7 min |
| Cc1ccc(S(=O)(=O)Nc2ccccc2C(=O)Nc2ccc(-c3ccccc3)nc2)cc1 | 2.7 min |
| Nc1nc(Nc2ccc(S(N)(=O)=O)cc2)nn1C(=O)c1c(F)cccc1F | > 30 min |
